IC50 data for 26 compounds are collected here from ChEMBL document CHEMBL3352575, “Synthesis, in vitro and in vivo antitumor activity of pyrazole-fused 23-hydroxybetulinic acid derivatives” (Bioorg Med Chem Lett, 2015).

The IC50 is the concentration at which inhibition is half-maximal.

Holding throughout (format): functional, cell-based
One assay relates to HeLa. The experiment in a line: Antiproliferative activity against human HeLa cells after 72 hrs by MTT assay. Background: Formazan colour is commonly taken as a measure of viable cells.
Assay [1] can be described thus: Antiproliferative activity against human SF763 cells after 72 hrs by MTT assay. The settings on record: SF763, 72 h.
The test system of another assay is B16. Kind of assay: Antiproliferative activity against mouse B16 cells after 72 hrs by MTT assay. The settings on record: B16, 72 h.
Assay [2] can be described thus: Antiproliferative activity against human Bel7402 cells after 72 hrs by MTT assay. Particulars: Bel-7402, 72 h.
Assay [3] can be described thus: Antiproliferative activity against human HL60 cells after 72 hrs by MTT assay. Particulars: HL-60, 72 h.

Turning to `C=C(C)[C@@H]1CC[C@]2(C(=O)OCC(=O)O)CC[C@]3(C)[C@H](CC[C@@H]4[C@@]5(C)Cc6cn(CC(=O)O)nc6[C@@](C)(CO)[C@@H]5CC[C@]43C)[C@@H]12`, the IC50 stood at 50 µM with HeLa; 41.8 µM in assay [1]; 36 µM with B16; 47.6 µM in assay [2]; 44.8 µM in assay [3].
For `C=C(C)[C@@H]1CC[C@]2(C(=O)Oc3ccc(C#N)cc3)CC[C@]3(C)[C@H](CC[C@@H]4[C@@]5(C)Cc6cn(C(C)=O)nc6[C@@](C)(COC(C)=O)[C@@H]5CC[C@]43C)[C@@H]12`, in that order: 28 µM, 23.4 µM, 22.5 µM, 18.1 µM and 31.3 µM.
Consider `C=C(C)[C@@H]1CC[C@]2(C(=O)O)CC[C@]3(C)[C@H](CC[C@@H]4[C@@]5(C)Cc6cn(C(C)=O)nc6[C@@](C)(COC(C)=O)[C@@H]5CC[C@]43C)[C@@H]12`, for which the IC50 is 33.8 µM in the assay on HeLa; 31.5 µM in assay [1]; 37.4 µM in the assay on B16; 30.7 µM in assay [2]; 39.1 µM in assay [3].
Take `C=C(C)[C@@H]1CC[C@]2(C(=O)O[C@@H]3O[C@H](CO)[C@@H](O)[C@H](O)[C@H]3O)CC[C@]3(C)[C@H](CC[C@@H]4[C@@]5(C)Cc6c[nH]nc6[C@@](C)(COC(C)=O)[C@@H]5CC[C@]43C)[C@@H]12`: the IC50 is 20 µM in the assay on HeLa; 20.1 µM in assay [1]; 18.9 µM in the assay on B16; 14.1 µM in assay [2]; 28.5 µM in assay [3].
In the same order, the values of `C=C(C)[C@@H]1CC[C@]2(C(=O)N3CCOCC3)CC[C@]3(C)[C@H](CC[C@@H]4[C@@]5(C)Cc6c[nH]nc6[C@@](C)(COC(C)=O)[C@@H]5CC[C@]43C)[C@@H]12` are 10 µM, 8.45 µM, 7.89 µM, 10.2 µM and 9.85 µM.
For `C=C(C)[C@@H]1CC[C@]2(C(=O)OCc3ccccc3)CC[C@]3(C)[C@H](CC[C@@H]4[C@@]5(C)Cc6cn(CC(=O)OCC)nc6[C@@](C)(CO)[C@@H]5CC[C@]43C)[C@@H]12`, in that order: 37 µM, 33 µM, 32.9 µM, 43 µM and 39.1 µM.
In the same order, the values of `C=C(C)[C@@H]1CC[C@]2(C(=O)OCc3ccccc3)CC[C@]3(C)[C@H](CC[C@@H]4[C@@]5(C)Cc6cn(CC)nc6[C@@](C)(CO)[C@@H]5CC[C@]43C)[C@@H]12` are 40 µM, 39.6 µM, 38.2 µM, 45.8 µM and 40.1 µM.
As for `C=C(C)[C@@H]1CC[C@]2(C(=O)O)CC[C@]3(C)[C@H](CC[C@@H]4[C@@]5(C)Cc6cn(CCC)nc6[C@@](C)(CO)[C@@H]5CC[C@]43C)[C@@H]12`, the IC50 was 54.1 µM in the assay with HeLa; 41 µM in assay [1]; 44.3 µM in the assay on B16; 48 µM in assay [2]; 45.8 µM in assay [3].
In the case of `C=C(C)[C@@H]1CC[C@]2(C(=O)OCC(=O)OCC)CC[C@]3(C)[C@H](CC[C@@H]4[C@@]5(C)Cc6cn(C(C)=O)nc6[C@@](C)(COC(C)=O)[C@@H]5CC[C@]43C)[C@@H]12`, the IC50 with HeLa stood at 40.4 µM; in assay [1], 37.6 µM; in the assay with B16, 35.7 µM; in assay [2] it was 36 µM; in assay [3], 45.6 µM.
In the same order, the values of `C=C(C)[C@@H]1CC[C@]2(C(=O)O)CC[C@]3(C)[C@H](CC[C@@H]4[C@@]5(C)Cc6c[nH]nc6[C@@](C)(CO)[C@@H]5CC[C@]43C)[C@@H]12` are 21.1 µM, 20.8 µM, 19.8 µM, 21 µM and 29.1 µM.
In the same order, the values of `C=C(C)[C@@H]1CC[C@]2(C(=O)O)CC[C@]3(C)[C@H](CC[C@@H]4[C@@]5(C)Cc6cn(CC(=O)OCC)nc6[C@@](C)(CO)[C@@H]5CC[C@]43C)[C@@H]12` are 47.2 µM, 35.9 µM, 29.4 µM, 40.6 µM and 49.8 µM.
For `C=CCOC(=O)[C@]12CC[C@@H](C(=C)C)[C@@H]1[C@H]1CC[C@@H]3[C@@]4(C)Cc5c[nH]nc5[C@@](C)(CO)[C@@H]4CC[C@@]3(C)[C@]1(C)CC2`, in that order: 19.5 µM, 18.7 µM, 18 µM, 17.8 µM and 24.3 µM.
Regarding `C=C(C)[C@@H]1CC[C@]2(C(=O)O)CC[C@]3(C)[C@H](CC[C@@H]4[C@@]5(C)Cc6c[nH]nc6[C@@](C)(COC(C)=O)[C@@H]5CC[C@]43C)[C@@H]12`, the IC50 with HeLa came out at 17.8 µM; in assay [1], 14.1 µM; with B16, 15.3 µM; in assay [2], 17.1 µM; in assay [3] it was 25.1 µM.
For `C=C(C)[C@@H]1CC[C@]2(C(=O)OCCO)CC[C@]3(C)[C@H](CC[C@@H]4[C@@]5(C)Cc6cn(C(C)=O)nc6[C@@](C)(COC(C)=O)[C@@H]5CC[C@]43C)[C@@H]12`, in that order: 40.1 µM, 32.1 µM, 33.8 µM, 34.4 µM and 43.2 µM.
In the same order, the values of `C=C(C)[C@@H]1CC[C@]2(C(=O)OCC)CC[C@]3(C)[C@H](CC[C@@H]4[C@@]5(C)Cc6cn(CC)nc6[C@@](C)(COC(C)=O)[C@@H]5CC[C@]43C)[C@@H]12` are 24.2 µM, 19.4 µM, 19.4 µM, 30.2 µM and 28.1 µM.
As to `C=C(C)[C@@H]1CC[C@]2(C(=O)NCC(=O)OC)CC[C@]3(C)[C@H](CC[C@@H]4[C@@]5(C)Cc6c[nH]nc6[C@@](C)(COC(C)=O)[C@@H]5CC[C@]43C)[C@@H]12`, the IC50 stood at 21.2 µM in the assay on HeLa; 17.7 µM in assay [1]; 18.9 µM with B16; 19.3 µM in assay [2]; 20.9 µM in assay [3].
For the compound `C=C(C)[C@@H]1CC[C@]2(C(=O)O)CC[C@]3(C)[C@H](CC[C@@H]4[C@@]5(C)Cc6cn(CC(=O)O)nc6[C@@](C)(CO)[C@@H]5CC[C@]43C)[C@@H]12`, the IC50 was 59.9 µM in the assay on HeLa; 30.2 µM in assay [1]; 39.7 µM in the assay on B16; 50.2 µM in assay [2]; 46.3 µM in assay [3].
For `C=C(C)[C@@H]1CC[C@]2(C(=O)OCc3ccccc3)CC[C@]3(C)[C@H](CC[C@@H]4[C@@]5(C)Cc6cn(C(C)=O)nc6[C@@](C)(COC(C)=O)[C@@H]5CC[C@]43C)[C@@H]12`, in that order: 30.9 µM, 28.4 µM, 28 µM, 26.7 µM and 33.6 µM.
In the case of `C=C(C)[C@@H]1CC[C@]2(C(=O)OCC(=O)OCC)CC[C@]3(C)[C@H](CC[C@@H]4[C@@]5(C)Cc6cn(CC(=O)OCC)nc6[C@@](C)(COC(C)=O)[C@@H]5CC[C@]43C)[C@@H]12`, the IC50 with HeLa was 38.2 µM; in assay [1], 34 µM; in the assay with B16 it was 29.3 µM; in assay [2], 39.2 µM; in assay [3], 35.1 µM.
In the same order, the values of `C=C(C)[C@@H]1CC[C@]2(C(=O)O)CC[C@]3(C)[C@H](CC[C@@H]4[C@@]5(C)Cc6cn(CC)nc6[C@@](C)(CO)[C@@H]5CC[C@]43C)[C@@H]12` are 58.8 µM, 44.1 µM, 42.4 µM, 50.3 µM and 47 µM.
For `C=C(C)[C@@H]1CC[C@]2(C(=O)NCC(=O)O)CC[C@]3(C)[C@H](CC[C@@H]4[C@@]5(C)Cc6c[nH]nc6[C@@](C)(CO)[C@@H]5CC[C@]43C)[C@@H]12`, in that order: 32.7 µM, 27.4 µM, 30.8 µM, 36.1 µM and 34.9 µM.
In the same order, the values of `C=C(C)[C@@H]1CC[C@]2(C(=O)OCc3ccccc3)CC[C@]3(C)[C@H](CC[C@@H]4[C@@]5(C)Cc6c[nH]nc6[C@@](C)(CO)[C@@H]5CC[C@]43C)[C@@H]12` are 16.1 µM, 11.7 µM, 13 µM, 13.9 µM and 20.1 µM.
As for `C=C(C)[C@@H]1CC[C@]2(C(=O)OCC)CC[C@]3(C)[C@H](CC[C@@H]4[C@@]5(C)Cc6c[nH]nc6[C@@](C)(CO)[C@@H]5CC[C@]43C)[C@@H]12`, the IC50 in the assay with HeLa came to 16.2 µM; in assay [1], 13.3 µM; in the assay on B16, 16.1 µM; in assay [2], 15.2 µM; in assay [3], 21.1 µM.
For `C=CCn1cc2c(n1)[C@@](C)(CO)[C@@H]1CC[C@]3(C)[C@H](CC[C@@H]4[C@H]5[C@H](C(=C)C)CC[C@]5(C(=O)OCc5ccccc5)CC[C@]43C)[C@@]1(C)C2`, the IC50 is 26.4 µM with HeLa; 21.1 µM in assay [1]; 20.1 µM in the assay on B16; 29.6 µM in assay [2]; 31.1 µM in assay [3].
In the same order, the values of `C=CCOC(=O)[C@]12CC[C@@H](C(=C)C)[C@@H]1[C@H]1CC[C@@H]3[C@@]4(C)Cc5cn(CC=C)nc5[C@@](C)(CO)[C@@H]4CC[C@@]3(C)[C@]1(C)CC2` are 32.1 µM, 25.3 µM, 24.9 µM, 38.8 µM and 33.4 µM.
As to `COc1cccc2c1C(=O)c1c(O)c3c(c(O)c1C2=O)C[C@@](O)(C(=O)CO)C[C@@H]3O[C@H]1C[C@H](N)[C@H](O)[C@H](C)O1` [DOXORUBICIN], the IC50 in assay [2] came to 0.22 µM.
